Patent US11351178B2, “Selective HDAC6 inhibitors” (ITALFARMACO S.P.A., priority 2017, dated 2022)
pIC50: −log10 of the molar value.

What was measured:
HDAC10 = target: T1, HDAC10 (Homo sapiens, UniProt Q969S8); assay: Enzymatic test HDAC10; format: biochemical; conditions: Table 3
T1 construct: purchased BPS 50010
T1 sequence (Q969S8 1-669): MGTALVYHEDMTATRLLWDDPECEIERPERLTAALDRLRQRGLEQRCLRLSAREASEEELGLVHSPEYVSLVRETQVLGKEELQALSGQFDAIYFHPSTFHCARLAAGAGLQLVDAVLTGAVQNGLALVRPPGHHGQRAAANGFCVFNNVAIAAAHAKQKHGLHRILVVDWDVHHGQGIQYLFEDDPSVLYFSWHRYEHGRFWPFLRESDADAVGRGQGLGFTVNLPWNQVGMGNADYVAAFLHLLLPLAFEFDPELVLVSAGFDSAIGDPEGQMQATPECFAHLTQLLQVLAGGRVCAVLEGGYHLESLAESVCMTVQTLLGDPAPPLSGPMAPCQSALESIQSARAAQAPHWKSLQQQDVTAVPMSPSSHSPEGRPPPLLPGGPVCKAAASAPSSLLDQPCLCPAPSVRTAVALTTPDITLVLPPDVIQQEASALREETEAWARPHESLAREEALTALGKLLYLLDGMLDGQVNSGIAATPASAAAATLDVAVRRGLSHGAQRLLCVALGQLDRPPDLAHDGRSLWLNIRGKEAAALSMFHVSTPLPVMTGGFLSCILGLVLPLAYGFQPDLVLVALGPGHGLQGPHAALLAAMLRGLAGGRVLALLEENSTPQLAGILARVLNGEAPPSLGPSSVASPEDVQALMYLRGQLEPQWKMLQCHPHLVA

HDAC9 = target: T2, HDAC9 (Homo sapiens, UniProt Q9UKV0); assay: Enzymatic test HDAC9; format: biochemical; conditions: Table 3
T2 construct: purchased BPS 50009
T2 sequence (Q9UKV0 1-1066 isoform Q9UKV0-5): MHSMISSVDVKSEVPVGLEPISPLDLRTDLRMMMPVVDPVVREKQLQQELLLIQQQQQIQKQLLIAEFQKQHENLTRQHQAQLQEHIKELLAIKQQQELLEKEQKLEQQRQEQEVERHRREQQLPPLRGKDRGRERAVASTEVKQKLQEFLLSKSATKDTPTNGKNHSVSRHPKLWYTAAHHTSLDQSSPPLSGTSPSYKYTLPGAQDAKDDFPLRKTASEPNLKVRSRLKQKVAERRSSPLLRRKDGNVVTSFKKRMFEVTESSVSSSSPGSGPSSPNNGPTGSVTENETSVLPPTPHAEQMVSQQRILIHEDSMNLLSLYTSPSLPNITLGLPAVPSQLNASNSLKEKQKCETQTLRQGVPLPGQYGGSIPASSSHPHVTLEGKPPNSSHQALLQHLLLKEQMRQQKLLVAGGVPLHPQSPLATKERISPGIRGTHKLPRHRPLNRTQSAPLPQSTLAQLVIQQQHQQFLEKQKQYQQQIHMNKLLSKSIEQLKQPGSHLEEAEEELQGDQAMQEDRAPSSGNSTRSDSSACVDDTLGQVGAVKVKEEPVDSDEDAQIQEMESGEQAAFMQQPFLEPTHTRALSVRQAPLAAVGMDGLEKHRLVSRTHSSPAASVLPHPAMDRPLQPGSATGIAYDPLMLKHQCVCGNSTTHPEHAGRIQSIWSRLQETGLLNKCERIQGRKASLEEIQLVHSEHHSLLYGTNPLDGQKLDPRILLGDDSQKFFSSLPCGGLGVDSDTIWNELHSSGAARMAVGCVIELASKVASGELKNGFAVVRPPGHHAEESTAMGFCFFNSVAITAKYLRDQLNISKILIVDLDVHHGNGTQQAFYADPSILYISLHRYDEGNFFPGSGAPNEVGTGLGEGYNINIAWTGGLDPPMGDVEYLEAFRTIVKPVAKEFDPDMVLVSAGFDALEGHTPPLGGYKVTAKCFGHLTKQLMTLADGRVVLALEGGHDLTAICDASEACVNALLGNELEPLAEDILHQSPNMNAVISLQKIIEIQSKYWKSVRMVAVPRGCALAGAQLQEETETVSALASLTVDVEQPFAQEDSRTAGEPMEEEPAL
Method: (§1) After a period of incubation at 30° C. (incubation times vary for different isoforms and are shown in table 1) 25 μL of solution containing the substrate were added. As substrate, FLUOR DE LYS® deacetylase substrate (Enzo Life Sciences, cat #BML-K1104, FdL), FLUOR DE LYS®-Green substrate (Enzo Life Sciences, cat #BML-K1572 FdL_G) and trifluoroacetyl-L-lysine (Tfal)-2× concentrated solution in 25 mM Tris-HCl, pH 8, 130 mM NaCl 0.05% Tween-20 10% glycerol) were used. Following a reaction period at 30° C.

HDAC4 = target: T3, HDAC4 (Homo sapiens, UniProt P56524); assay: Enzymatic test HDAC4; format: biochemical; conditions: Table 3
T3 construct: purchased BPS 50004
T3 sequence (P56524 627-1084 limits assumed): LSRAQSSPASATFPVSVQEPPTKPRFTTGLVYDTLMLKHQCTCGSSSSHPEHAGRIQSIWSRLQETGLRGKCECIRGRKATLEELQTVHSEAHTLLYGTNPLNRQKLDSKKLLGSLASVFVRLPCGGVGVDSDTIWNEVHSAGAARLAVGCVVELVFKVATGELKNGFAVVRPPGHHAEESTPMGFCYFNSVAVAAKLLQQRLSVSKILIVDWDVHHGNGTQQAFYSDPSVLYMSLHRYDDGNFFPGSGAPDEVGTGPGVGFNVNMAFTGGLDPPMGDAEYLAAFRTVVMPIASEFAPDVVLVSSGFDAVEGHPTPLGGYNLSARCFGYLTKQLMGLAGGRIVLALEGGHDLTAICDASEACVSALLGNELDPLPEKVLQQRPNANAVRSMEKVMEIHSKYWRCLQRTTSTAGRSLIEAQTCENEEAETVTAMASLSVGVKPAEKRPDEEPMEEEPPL
Method: as §1

[1] = system: B 697 promyelocytic cell line; assay: Cytotoxicity on 697 cell line (CellTiter 96); format: cell-based; conditions: 72 hours incubation, read-out: 697 TOXICITY
Outline: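 Cells seeded (2×10^4/well for 697, 5×10^5/well for PBMCs); compounds added after 24 h at 1–10000 nM (697) or 1.5–10000 nM (PBMCs) and incubated 72 h. Viability read by CellTiter 96 Aqueous One tetrazolium assay of mitochondrial function.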

HDAC2 = target: T4, HDAC2 (Homo sapiens, UniProt Q92769); assay: Enzymatic test HDAC2; format: biochemical; conditions: Table 3
T4 construct: purchased BPS 50002
T4 sequence (Q92769 whole entry): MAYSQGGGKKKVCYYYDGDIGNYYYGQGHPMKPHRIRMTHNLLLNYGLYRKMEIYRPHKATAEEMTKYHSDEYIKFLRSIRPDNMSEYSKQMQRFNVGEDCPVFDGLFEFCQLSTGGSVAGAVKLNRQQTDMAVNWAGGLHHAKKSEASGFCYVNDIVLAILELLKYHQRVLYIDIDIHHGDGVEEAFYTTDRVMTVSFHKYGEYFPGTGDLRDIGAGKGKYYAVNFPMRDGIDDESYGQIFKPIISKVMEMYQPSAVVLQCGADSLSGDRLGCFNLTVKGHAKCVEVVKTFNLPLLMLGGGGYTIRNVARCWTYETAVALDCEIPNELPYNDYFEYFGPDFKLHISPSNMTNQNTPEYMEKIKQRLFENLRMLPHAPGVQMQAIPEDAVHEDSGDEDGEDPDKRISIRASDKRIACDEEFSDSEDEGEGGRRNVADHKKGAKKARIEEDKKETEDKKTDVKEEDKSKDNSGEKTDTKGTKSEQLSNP

HDAC8 = target: T5, HDAC8 (Homo sapiens, UniProt Q9BY41); assay: Enzymatic test HDAC8; format: biochemical; conditions: Table 3
T5 construct: purchased BPS 50008
T5 sequence (Q9BY41 1-377): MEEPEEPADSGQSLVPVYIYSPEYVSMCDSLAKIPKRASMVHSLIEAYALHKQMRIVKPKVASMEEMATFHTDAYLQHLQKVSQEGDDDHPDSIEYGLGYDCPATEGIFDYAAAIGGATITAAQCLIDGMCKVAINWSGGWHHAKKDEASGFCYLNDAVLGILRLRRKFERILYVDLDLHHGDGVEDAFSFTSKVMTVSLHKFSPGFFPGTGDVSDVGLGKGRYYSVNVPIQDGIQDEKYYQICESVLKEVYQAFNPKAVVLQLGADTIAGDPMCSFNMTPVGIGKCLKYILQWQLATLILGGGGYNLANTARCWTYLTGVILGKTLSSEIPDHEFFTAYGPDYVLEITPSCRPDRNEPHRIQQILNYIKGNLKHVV

HDAC11 = target: T6, HDAC11 (Homo sapiens, UniProt Q96DB2); assay: Enzymatic test HDAC11; format: biochemical; conditions: Table 3
T6 construct: purchased BML SE560
T6 sequence (Q96DB2 1-347): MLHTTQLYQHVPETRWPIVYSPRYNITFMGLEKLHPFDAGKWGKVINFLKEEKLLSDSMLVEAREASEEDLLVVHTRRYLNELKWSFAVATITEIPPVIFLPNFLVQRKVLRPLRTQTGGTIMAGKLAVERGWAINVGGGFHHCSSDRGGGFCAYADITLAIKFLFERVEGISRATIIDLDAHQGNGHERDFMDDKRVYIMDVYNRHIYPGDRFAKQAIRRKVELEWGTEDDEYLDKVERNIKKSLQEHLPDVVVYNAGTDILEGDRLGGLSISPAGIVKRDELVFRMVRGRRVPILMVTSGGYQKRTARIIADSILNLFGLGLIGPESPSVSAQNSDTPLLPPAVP
Method: as §1

[2] = Stability to Phase I metabolism in human S9 liver fraction; format: in vitro ADME
Outline: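 Compounds were incubated with rat or human liver S9 fraction at 37 °C for up to 90 min. Reactions were quenched on ice with acidified acetonitrile and analysed by HPLC-UV or LC-MS/MS. Percent remaining versus time zero and intrinsic clearance were calculated.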

[3] = human liver S9 fraction, after 90 min, 37° C.

SMILES	pIC50 (HDAC10)	pIC50 (HDAC9)	pIC50 (HDAC4)	pIC50 [1]	pIC50 (HDAC2)	pIC50 (HDAC8)	pIC50 (HDAC11)	residual percentage in human S9 fraction ([2]; human, 90 min, pH 7.4) [%]	residual percentage in human S9 fraction [2, 3] [%]
CN(C)c1cccc(-c2nnc(Sc3ccc(C(=O)NO)cc3)n2C)c1 [comp. 77, 4-[[5-[3-(dimethylamino)phenyl]-4-methyl-1,2,4-triazol-3-yl]sulfanyl]benzenecarbohydroxamic acid]	5.55	5.76	5.58	4.96	5.28	6.10	5.84	–	–
O=C(NO)c1cc(F)c(Cn2nnnc2-c2ccccn2)c(F)c1 [comp. 13, 3,5-difluoro-N-hydroxy-4-((5-(pyridin-2-yl)-1H-tetrazol-1-yl)methyl)benzamide]	5.57	6.19	6.22	–	4.94	6.31	5.83	98	–
O=C(NO)c1cc(F)c(Cn2nnnc2-c2cccs2)c(F)c1 [comp. 15, 3,5-difluoro-N-hydroxy-4-((5-(thiophen-2-yl)-1H-tetrazol-1-yl)methyl)benzamide]	5.06	6.18	6.18	5.06	5.06	6.00	5.34	83	–
O=C(NO)c1cc(F)c(Cn2nnc(-c3ccco3)n2)c(F)c1 [comp. 19, 3,5-difluoro-4-((5-(furan-2-yl)-2H-tetrazol-2-yl)methyl)-N-hydroxybenzamide]	5.57	6.23	6.17	5.93	5.02	6.19	6.10	–	94
Cc1cc(-c2nnc(Sc3ccc(C(=O)NO)cc3)n2C)nn1C [comp. 85, 4-[[5-(1,5-dimethylpyrazol-3-yl)-4-methyl-1,2,4-triazol-3-yl]sulfanyl]benzenecarbohydroxamic acid]	6.02	6.34	5.99	5.94	5.77	6.67	6.25	–	–
COc1ccc(C(=O)N[C@@H](Cc2cscn2)c2nc(Cc3ccc(C(=O)NO)cc3)no2)cc1OC [comp. 1, (S)—N-(1-(3-(4-(hydroxycarbamoyl)benzyl)-1,2,4-oxadiazol-5-yl)-2-(thiazol-4-yl)ethyl)-3,4-dimethoxybenzamide]	5.61	5.23	5.00	4.98	5.18	6.15	5.57	81	–
Cn1c(Sc2c(F)cc(C(=O)NO)cc2F)nnc1-c1cccs1 [comp. 17, 3,5-difluoro-N-hydroxy-4-((4-methyl-5-(thiophen-2-yl)-4H-1,2,4-triazol-3-yl)thio)benzamide]	5.16	6.30	5.86	5.28	4.80	6.71	5.64	–	83
Cn1c(Sc2ccc(C(=O)NO)cc2)nnc1-c1cccs1 [comp. 10, N-hydroxy-4-((4-methyl-5-(thiophen-2-yl)-4H-1,2,4-triazol-3-yl)thio)benzamide]	5.55	5.96	5.60	5.36	5.35	6.30	6.01	–	95
O=C(NO)c1ccc(Cc2nnc(-c3ccc(F)cc3F)o2)cc1 [comp. 58, 4-((5-(2,4-difluorophenyl)-1,3,4-oxadiazol-2-yl)methyl)-N-hydroxybenzamide]	6.23	5.66	5.41	–	5.76	6.00	6.55	–	–
O=C(NO)c1cc(F)c(Cn2nnc(-c3ccccn3)n2)c(F)c1 [comp. 6, 3,5-difluoro-N-hydroxy-4-((5-(pyridin-2-yl)-2H-tetrazol-2-yl)methyl)benzamide]	4.96	6.12	5.98	< 5.00	4.56	5.99	5.29	–	85.6
O=C(NO)c1ccc(Cn2nnc(-c3ccc(C(F)(F)F)cc3)n2)cc1 [comp. 23, 4-[[5-[4-(trifluoromethyl)phenyl]tetrazol-2-yl]methyl]benzenecarbohydroxamic acid]	5.96	5.57	5.37	–	5.69	5.55	6.31	–	–
